Patent publication US11643665B2, “Nucleotide sequences encoding Fasciated EAR3 (FEA3) and methods of use thereof” (CORTEVA AGRISCIENCE LLC, priority 2012, dated 2023)
Where no end group is shown, it is not given here.

Columns and labels:
Format in all cases: in vivo, maize
[1] = tested on: B73 and homozygous fea2 and fea3 mutant seedlings; assay: Clavata3 peptide root assay (primary root length of seedlings on agar plates); conditions: agar plates containing CLV3 peptide, after 7 days
Experimental: In Arabidopsis, CLAVATA2 activity can be detected by responses of root growth to CLAVATA3 (CLV3) peptide. To analyze whether FEA3 and FEA2 respond to CLV3, and determine if they act in a common pathway a CLV3 peptide assay was performed. B73 and homozygous fea2 and fea3 mutant seedlings were germinated and grown on agar plates containing CLV3 peptide. As a control, seedlings were also grown on plates containing a mutated version of the peptide and on plates without any peptide. After 7 days the length of the primary root was measured.

[2] = tested on: B73 and fea3 mutant seedlings; assay: Clavata3-like peptide root assay (primary root length of seedlings on agar plates); conditions: 5 μM or 10 μM peptide, after 7 days
Experimental: To analyze whether FEA3 responds to CLV3-like peptides, and determine if they act in a common pathway, a CLV3 peptide assay was performed. The peptides used were ZCL3 (Zea mays CLE-like 3; SEQ ID NO:32), FCP1 (SEQ ID NO:33), CLV3 (SEQ ID NO:34), CLE20 (SEQ ID NO:35), CLE40 (SEQ ID NO:36), ZCL21 ([…]; SEQ ID NO:37), and ZCL23 (Zea mays CLE-like 23; SEQ ID NO:38).
The ZCL peptides were found in maize sequences in the NCBI database by homology search using the CLV3, CLE, and rice related peptides (Fiers et al Plant Cell (2005), 17: 2542-2553; Suzaki et al (2008), Plant Cell, 20: 2049-2058).
B73 and fea3 mutant seedlings were germinated and grown on agar plates containing each 5 μM or 10 μM peptide. As a control, seedlings were also grown on plates containing a scramble of the peptide. After 7 days the length of the primary root was measured.

Wt and fea3 embryos = assay: Embryo culture assay in presence of FCP1 peptide (embryo SAM growth); conditions: 20 μM peptide, two weeks after planting
Experimental: Wt and fea3 embryos were cultured in the presence of 20 μM FCP1 peptide (SEQ ID NO:33) or 20 μM scrambled peptide. For measurement of embryo SAM growth, about 10 days after pollination, embryos were sterilized (whole corn was sterilized, not individual young seeds) and dissected embryos and put the embryos down on the media and the measurement of SAM size was done two weeks after planting (embryo culture).

## CLV3: CLAVATA3 (CLV3) peptide (RTVPSGPDPLHH; ends and bridges not checked; listed as Arabidopsis thaliana)
[1]; B73 wild type plants
  root growth response (length of the primary root): strong root growth inhibition
[1]; homozygous fea2 mutants
  root growth response (length of the primary root): do not respond
[1]; homozygous fea3 mutants
  root growth response (length of the primary root): respond
[2]; B73 wild type plants
  root growth response (length of the primary root): strong root growth inhibition

## FCP1: CLV3-like peptide used for the CLV3/CLV3-like peptide assay (REVPTGPDPIHH; listed as Oryza sativa)
Wt and fea3 embryos; WT embryos
  embryo SAM growth (SAM size): strongly inhibited
Wt and fea3 embryos; fea3 embryos
  embryo SAM growth (SAM size): resistance
[2]; B73 wild type plants
  root growth response (length of the primary root): strong root growth inhibition
[2]; fea3 mutants
  root growth response (length of the primary root): less sensitivity

## ZCL3: Zea mays CLE-like 3 peptide, found in maize sequences by homology search using CLV3, CLE and rice related peptides (RPVPSGPDPIHH; Zea mays)
[2]; B73 wild type plants
  root growth response (length of the primary root): strong root growth inhibition
